Experimental data published in US11576913B2 (priority 2018, dated 2023).

System: subjects suffering from the Insomnia Disorder adult insomnia
Test: Polysomnography crossover study of sleep parameters (SE, TST, WASO, LPS, Stage N2)
Format: in vivo, human
Settings: for Latency to Persistent Sleep (LPS) Least Squares Means (STDE) / Sleep Efficiency (SE) Least Squares Means (STDE) / Time Spent in Sleep Stage N2 Least Squares Means (STDE) / Total Sleep Time (TST) Least Squares Means (STDE) / Wake after Sleep Onset (WASO) Least Squares Means (STDE): average of Night 1 and Night 2, full analysis population; for WASO, decrease in the difference of LSMs: stated as decrease
Description: The study randomized up to about 30 subjects to achieve at least about 24 completers (i.e., subjects who completed all 5 Dosing Periods). The subjects included otherwise healthy males and females aged 18 to 64 years, inclusive, with a history of adult insomnia (insomnia disorder as defined by DSM-5 criteria) and who otherwise had no significant medical or psychiatric history.
Compound (1C) was administered orally in an immediate release tablet comprising the pharmaceutically acceptable excipients croscarmellose sodium (FMC Health and Nutrition, Philadelphia, Pa.), hydroxypropylcellulose (Ashland Inc., Covington, Ky.), microcrystalline cellulose (Sigma-Aldrich, St. Louis, Mo.), and mannitol (SPI Pharma, Wilmington, Del.). […] Placebo tablets matching the Compound (1C) tablets were orally administered in the same way. The placebo tablets comprised the four above-described pharmaceutically acceptable excipients but with no Compound (1C).
During a baseline visit (Days −7 to −6), successful subjects arrived at a clinical unit in the afternoon or evening of Day −7. At that time, they began a stay of two consecutive nights during which each subject underwent continuous PSG recording for eight hours on the first night (Night 1) to assess eligibility criteria and to screen out subjects with sleep apnea or periodic limb movements with arousal. Still-successful subjects underwent another eight hours of continuous PSG recording on the second night (Night 2), which determined if a subject met the sleep-eligibility criteria based on the average of data obtained on Nights 1 and 2 of the baseline visit. During the baseline visit, subjects also practiced and took a post-sleep test used in this study, i.e., the digit symbol substitution test (“DSST”), and familiarized themselves with the Karolinska Sleepiness Scale (“KSS”) evaluation form. To assess a subject's perception of the “quality” and “quantity” of sleep, a post-sleep questionnaire was used to ask questions such as “how many minutes did it take you to fall asleep last night after you got into bed and the lights were turned off?”, “how many times did you awaken during the night?”, and “on a scale from 1 to 10, with 1 being poor and 10 being excellent, how would you rate the quality of your sleep last night?”. Subjects who met all eligibility criteria after the baseline visit returned approximately seven days later to enter the treatment period (Dosing Periods 1-5).
A summary of the PSG recording procedure that was used is as follows. Standard placements for EEG electrodes were derived according to the international 10-20 system (see, e.g., Jasper, “The ten-twenty electrode system of the international federation,” Electroencephalography Clin. Neurophys. 10:371-375 (1958)) with the exception of the change of the A1-A2 labels to M1-M2, pursuant to the AASM Manual for Scoring of Sleep (Berry et al., “The AASM Manual for the Scoring of Sleep and Associated Events: Rules, Terminology and Technical Specifications,” Version 2.0.3, American Academy of Sleep Medicine, Darien, Ill., (2014)). This system requires that electrodes be positioned in measured relationships to landmark anatomical points. Standard placements for EOG, submental EMG electrodes, anterior tibialis EMG electrodes, and airflow sensors were consistent with the AASM Manual for Scoring of Sleep.
(2) The 27-day treatment period included five dosing periods (Dosing Periods 1-5) that were at least 5 days apart. Once continued eligibility was confirmed, subjects were randomized as to treatment upon check-in on Day 1. […] The time subjects spent in bed in an undisturbed environment was fixed at 8 hours (i.e., 960 PSG epochs of 30 seconds duration per epoch).
Following the evening-time dosing with study drug, subjects underwent eight hours of continuous PSG recording. […]

[1] = all treatment groups (0.5, 1.0, 3.0, 6.0 mg)

O=C(O)c1nc2ccccc2n([C@H]2C[C@H]3CCC[C@@H](C2)N3C2CC3CCCC(C3)C2)c1=O (stereo partly shown) [Compound (1C)]
Latency to Persistent Sleep (LPS) Least Squares Means (STDE) (0.5 mg oral): −25.9 (2.78) min
Sleep Efficiency (SE) Least Squares Means (STDE) (0.5 mg oral): 12.1 (1.02) %
Time Spent in Sleep Stage N2 Least Squares Means (STDE) (0.5 mg oral): 57.1 (5.53) min
Total Sleep Time (TST) Least Squares Means (STDE) (0.5 mg oral): 57.9 (4.88) min
Wake after Sleep Onset (WASO) Least Squares Means (STDE) (0.5 mg oral): −37.1 (4.54) min
Latency to Persistent Sleep (LPS) Difference of Least Squares Means vs. Placebo (0.5 mg vs. Placebo): 2.6 min
Sleep Efficiency (SE) Difference of Least Squares Means vs. Placebo (0.5 mg vs. Placebo): 4.1%
Time Spent in Sleep Stage N2 Difference of Least Squares Means vs. Placebo (0.5 mg vs. Placebo): 33.6 min
Total Sleep Time (TST) Difference of Least Squares Means vs. Placebo (0.5 mg vs. Placebo): 19.8 min
Wake after Sleep Onset (WASO) Difference of Least Squares Means vs. Placebo (0.5 mg vs. Placebo): -24.3 min
WASO, decrease in the difference of LSMs (0.5 mg vs. placebo): 24.3 min
Latency to Persistent Sleep (LPS) Least Squares Means (STDE) (1.0 mg oral): −29.9 (2.78) min
Sleep Efficiency (SE) Least Squares Means (STDE) (1.0 mg oral): 14.7 (1.02) %
Time Spent in Sleep Stage N2 Least Squares Means (STDE) (1.0 mg oral): 69.2 (5.53) min
Total Sleep Time (TST) Least Squares Means (STDE) (1.0 mg oral): 70.3 (4.88) min
Wake after Sleep Onset (WASO) Least Squares Means (STDE) (1.0 mg oral): −44.5 (4.54) min
Latency to Persistent Sleep (LPS) Difference of Least Squares Means vs. Placebo (1.0 mg vs. Placebo): -1.4 min
Sleep Efficiency (SE) Difference of Least Squares Means vs. Placebo (1.0 mg vs. Placebo): 6.7%
Time Spent in Sleep Stage N2 Difference of Least Squares Means vs. Placebo (1.0 mg vs. Placebo): 45.7 min
Total Sleep Time (TST) Difference of Least Squares Means vs. Placebo (1.0 mg vs. Placebo): 32.3 min
Wake after Sleep Onset (WASO) Difference of Least Squares Means vs. Placebo (1.0 mg vs. Placebo): -31.8 min
WASO, decrease in the difference of LSMs (1.0 mg vs. placebo): 31.8 min
Latency to Persistent Sleep (LPS) Least Squares Means (STDE) (3.0 mg oral): −29.0 (2.82) min
Sleep Efficiency (SE) Least Squares Means (STDE) (3.0 mg oral): 17.6 (1.03) %
Time Spent in Sleep Stage N2 Least Squares Means (STDE) (3.0 mg oral): 132.1 (5.6) min
Total Sleep Time (TST) Least Squares Means (STDE) (3.0 mg oral): 84.5 (4.96) min
Wake after Sleep Onset (WASO) Least Squares Means (STDE) (3.0 mg oral): −59.1 (4.60) min
Latency to Persistent Sleep (LPS) Difference of Least Squares Means vs. Placebo (3.0 mg vs. Placebo): -0.5 min
Sleep Efficiency (SE) Difference of Least Squares Means vs. Placebo (3.0 mg vs. Placebo): 9.7%
Time Spent in Sleep Stage N2 Difference of Least Squares Means vs. Placebo (3.0 mg vs. Placebo): 108.5 min
Total Sleep Time (TST) Difference of Least Squares Means vs. Placebo (3.0 mg vs. Placebo): 46.4 min
Wake after Sleep Onset (WASO) Difference of Least Squares Means vs. Placebo (3.0 mg vs. Placebo): -46.4 min
WASO, decrease in the difference of LSMs (3.0 mg vs. placebo): 46.4 min
Latency to Persistent Sleep (LPS) Least Squares Means (STDE) (6.0 mg oral): −31.7 (2.78) min
Sleep Efficiency (SE) Least Squares Means (STDE) (6.0 mg oral): 19.0 (1.02) %
Time Spent in Sleep Stage N2 Least Squares Means (STDE) (6.0 mg oral): 146.3 (5.5) min
Total Sleep Time (TST) Least Squares Means (STDE) (6.0 mg oral): 91.0 (4.88) min
Wake after Sleep Onset (WASO) Least Squares Means (STDE) (6.0 mg oral): −63.5 (4.54) min
Latency to Persistent Sleep (LPS) Difference of Least Squares Means vs. Placebo (6.0 mg vs. Placebo): -3.2 min
Sleep Efficiency (SE) Difference of Least Squares Means vs. Placebo (6.0 mg vs. Placebo): 11.0%
Time Spent in Sleep Stage N2 Difference of Least Squares Means vs. Placebo (6.0 mg vs. Placebo): 122.8 min
Total Sleep Time (TST) Difference of Least Squares Means vs. Placebo (6.0 mg vs. Placebo): 52.9 min
Wake after Sleep Onset (WASO) Difference of Least Squares Means vs. Placebo (6.0 mg vs. Placebo): -50.8 min
WASO, decrease in the difference of LSMs (6.0 mg vs. placebo): 50.8 min
Sleep Efficiency vs placebo [1]: significantly increased
Total Sleep Time vs placebo [1]: significantly increased
Wake after Sleep Onset vs placebo [1]: significantly decreased
amount of time spent in sleep Stage N2 vs placebo [1]: significantly increased
Latency to Persistent Sleep vs placebo (any of the treatment groups (0.5, 1.0, 3.0, 6.0 mg)): not significantly different
